Drawing on PubChem BioAssay AID330 (DTP/NCI, 2004), this text covers T/C for 19 compounds.

Values joined by “and” are separate entries in the source; they are usually repeats but may differ in a detail not shown here. Equal values may be shown once. Inconclusive results and toxic doses are left out. Numbered stars: 1 amine (or outer) side, 2 acyl side, 3 side chain; on linkers, the order of the positions; unused ones are H or OH. Bridge positions count the residues as written; N and C are the ends. Square brackets hold non-standard residues; d marks the D form. Peptide text beside a SMILES is read from it. I, II: the chains in the order shown. * marks the point of attachment. ξ: configuration not given here. Quinaldoyl(3-OH,6-OMe) = COc1ccc2nc(C(=O)*)c(O)cc2c1; X12 = CCC(=O)OC1CC=NN([*:1])C1C(=O)[*:2]; X8 = CC(=O)OC1CC=NN([*:1])C1C(=O)[*:2]; ξNMeVal(3-OH) = CNC(C(=O)O)C(C)(C)O; Sar = CNCC(=O)O

The assay relates to P388 leukemia ip, CD2F1 mice, survival T/C. Briefly: NCI In Vivo Anticancer Drug Screen. Data for tumor model P388 Leukemia (intraperitoneal) in CD2F1 (CDF1) mice. Particulars: endpoint: median survival time, higher = longer survival. Put shortly: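 Mice carrying the transplanted tumor received test compound or vehicle. Survival was recorded in each group, and the value is the treated-group measurement divided by that of the vehicle-treated control group.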

Where [1] appears, read: dose: 50.0 mg/kg/injection, schedule: Q01DX005 (ip), vehicle: Klucel (hydroxypropylcellulose) (HPC).
Where [2] appears, read: dose: 100.0 mg/kg/injection, schedule: Q01DX005 (ip), vehicle: Klucel (hydroxypropylcellulose) (HPC).
[3] abbreviates: dose: 200.0 mg/kg/injection, schedule: Q01DX005 (ip), vehicle: Klucel (hydroxypropylcellulose) (HPC).
The mark [4] stands for this setting: dose: 50.0 mg/kg/injection, schedule: Q01DX009 (ip), vehicle: saline with Tween-80.
Where [5] appears, read: dose: 100.0 mg/kg/injection, schedule: Q01DX009 (ip), vehicle: saline with Tween-80.
Where [6] appears, read: dose: 50.0 mg/kg/injection, schedule: Q01DX009 (ip), vehicle: saline.
The mark [7] stands for this setting: dose: 60.0 mg/kg/injection, schedule: Q01DX005 (ip), vehicle: saline with Tween-80.
[8] abbreviates: dose: 120.0 mg/kg/injection, schedule: Q01DX005 (ip), vehicle: saline with Tween-80.

`COc1cc(/C=C/c2ccc(OC)c(O)c2)cc(OC)c1`: the T/C was 108 % of control (dose: 6.25 mg/kg/injection, schedule: Q01DX005 (ip), vehicle: Klucel (hydroxypropylcellulose) (HPC)); 103 % of control (dose: 12.5 mg/kg/injection, schedule: Q01DX005 (ip), vehicle: Klucel (hydroxypropylcellulose) (HPC)); 99 % of control (dose: 25.0 mg/kg/injection, schedule: Q01DX005 (ip), vehicle: Klucel (hydroxypropylcellulose) (HPC)); 119 % of control and 94 % of control under setting [1]; 98 % of control under setting [2]; 94 % of control under setting [3].

In the case of `Nc1nc(Cl)c(C=O)c(Cl)n1`, the T/C is 96 % of control (dose: 12.5 mg/kg/injection, schedule: Q01DX009 (ip), vehicle: saline with Tween-80); 100 % of control and 119 % of control (dose: 25.0 mg/kg/injection, schedule: Q01DX009 (ip), vehicle: saline with Tween-80); 100 % of control and 120 % of control under setting [4]; 115 % of control under setting [5].

For the compound `CN1CCC2(CC1)N=C1CCN(C)CC1S2` (stereo not drawn), the T/C was 102 % of control (dose: 100.0 mg/kg/injection, schedule: Q01DX001 (ip), vehicle: saline with Tween-80) and 109 % of control (dose: 200.0 mg/kg/injection, schedule: Q01DX001 (ip), vehicle: saline with Tween-80).

For `NC(=O)C(NC(=O)c1ccc([N+](=O)[O-])cc1)C(N)=O`, the T/C was 103 % of control (dose: 100.0 mg/kg/injection, schedule: Q04DX003 (ip), vehicle: saline); 103 % of control (dose: 200.0 mg/kg/injection, schedule: Q04DX003 (ip), vehicle: saline); 103 % of control (dose: 400.0 mg/kg/injection, schedule: Q04DX003 (ip), vehicle: saline).

As for `C[S+](C)c1ccc(Cl)cc1`, the T/C is 95 % of control (dose: 12.5 mg/kg/injection, schedule: Q01DX009 (ip), vehicle: saline); 91 % of control (dose: 25.0 mg/kg/injection, schedule: Q01DX009 (ip), vehicle: saline); 108 % of control under setting [6].

In the case of `COC1=C(N=[N+]=[N-])C(=O)c2ncccc2C1=O`, the T/C is 100 % of control (dose: 0.63 mg/kg/injection, schedule: Q01DX009 (ip), vehicle: DMSO); 100 % of control (dose: 1.25 mg/kg/injection, schedule: Q01DX009 (ip), vehicle: DMSO); 95 % of control (dose: 1.56 mg/kg/injection, schedule: Q01DX009 (ip), vehicle: saline with Tween-80); 107 % of control (dose: 2.5 mg/kg/injection, schedule: Q01DX009 (ip), vehicle: DMSO); 98 % of control (dose: 3.12 mg/kg/injection, schedule: Q01DX009 (ip), vehicle: saline with Tween-80); 100 % of control (dose: 5.0 mg/kg/injection, schedule: Q01DX009 (ip), vehicle: DMSO).

With `CS(=O)(=O)OCCCCCCCCCOS(C)(=O)=O`, the T/C by setting is: (dose: 12.5 mg/kg/injection, schedule: Q01DX009 (ip), vehicle: saline sonified) 109 % of control; (dose: 25.0 mg/kg/injection, schedule: Q01DX009 (ip), vehicle: saline sonified) 122 % of control; (dose: 33.0 mg/kg/injection, schedule: Q04DX003 (ip), vehicle: saline with Tween-80) 109 % of control; (dose: 50.0 mg/kg/injection, schedule: Q01DX009 (ip), vehicle: saline sonified) 118 % of control; (dose: 50.0 mg/kg/injection, schedule: Q04DX003 (ip), vehicle: saline with Tween-80) 122 % of control; (dose: 75.0 mg/kg/injection, schedule: Q04DX003 (ip), vehicle: saline with Tween-80) 159 % of control.

With `COc1cc2nncc(Cl)c2cc1OC`, the T/C under setting [1] was 101 % of control.

On to `CCC(=O)OC1CC=NN2C(=O)C(NC(=O)c3nc4ccc(OC)cc4cc3O)COC(=O)C(C(C)(C)O)N(C)C(=O)CN(C)C(=O)CNC(=O)C3C(OC(C)=O)CC=NN3C(=O)C(NC(=O)c3nc4ccc(OC)cc4cc3O)COC(=O)C(C(C)(C)O)N(C)C(=O)CN(C)C(=O)CNC(=O)C12` (stereo not drawn) (I: {Quinaldoyl(3-OH,6-OMe)}-S[X12]G[Sar][ξNMeVal(3-OH)] / II: {Quinaldoyl(3-OH,6-OMe)}-S[X8]G[Sar][ξNMeVal(3-OH)]; ester I:1-II:C, I:C-II:1; configuration not given here), for which the T/C was 106 % of control (dose: 20.0 micrograms/kg/injection, schedule: Q01DX005 (ip), vehicle: DMSO); 153 % of control (dose: 40.0 micrograms/kg/injection, schedule: Q01DX005 (ip), vehicle: DMSO); 174 % of control (dose: 80.0 micrograms/kg/injection, schedule: Q01DX005 (ip), vehicle: DMSO); 155 % of control (dose: 160.0 micrograms/kg/injection, schedule: Q01DX005 (ip), vehicle: DMSO).

Take `CC(NC(CCCN=C(N)N)C(=O)O)C(=O)O` (stereo not drawn): the T/C (dose: 60.0 mg/kg/injection, schedule: Q01DX005 (ip), vehicle: saline) was 92 % of control; the T/C (dose: 120.0 mg/kg/injection, schedule: Q01DX005 (ip), vehicle: saline) was 100 % of control; the T/C (dose: 240.0 mg/kg/injection, schedule: Q01DX005 (ip), vehicle: saline) is 100 % of control.

Take `Cc1ccc(O)c(C2CC(C#N)CCN2C)c1` (stereo not drawn): the T/C under setting [7] is 98 % of control; the T/C under setting [8] was 100 % of control; the T/C (dose: 240.0 mg/kg/injection, schedule: Q01DX005 (ip), vehicle: saline with Tween-80) was 105 % of control.

Regarding `COc1c(Cl)cccc1N=Cc1ccc(C=Nc2cccc(Cl)c2OC)cc1`, the T/C was 97 % of control under setting [6]; 90 % of control (dose: 100.0 mg/kg/injection, schedule: Q01DX009 (ip), vehicle: saline); 89 % of control (dose: 200.0 mg/kg/injection, schedule: Q01DX009 (ip), vehicle: saline).

As to `CC(NC(=O)OCc1ccccc1)C(=O)NC(Cc1c[nH]c2ccccc12)C(=O)O` (stereo not drawn), the T/C by setting is: under setting [1], 99 % of control; under setting [2], 97 % of control; under setting [3], 95 % of control.

As for `CC1=NN(C(=O)c2ccncc2)C(=O)C1N=Nc1ccc(-c2ccc(N)cc2)cc1` (stereo not drawn), the T/C by setting is: under setting [4], 97 % of control; under setting [5], 98 % of control; (dose: 200.0 mg/kg/injection, schedule: Q01DX009 (ip), vehicle: saline with Tween-80) 96 % of control.

On to `CC1=CC23C(=O)[C@@H](C=C(COC(=O)c4ccccc4)[C@@H](O)[C@]2(O)[C@H]1OC(=O)c1ccccc1)[C@H]1[C@@H](C[C@H]3C)C1(C)C`, for which the T/C is 113 % of control (dose: 12.5 micrograms/kg/injection, schedule: Q01DX009 (ip), vehicle: saline with Tween-80); 102 % of control (dose: 25.0 micrograms/kg/injection, schedule: Q01DX009 (ip), vehicle: saline with Tween-80); 106 % of control (dose: 50.0 micrograms/kg/injection, schedule: Q01DX009 (ip), vehicle: saline with Tween-80); 119 % of control (dose: 100.0 micrograms/kg/injection, schedule: Q01DX009 (ip), vehicle: saline with Tween-80); 113 % of control (dose: 200.0 micrograms/kg/injection, schedule: Q01DX009 (ip), vehicle: saline with Tween-80); 108 % of control (dose: 281.0 micrograms/kg/injection, schedule: Q01DX009 (ip), vehicle: saline + alcohol). Further, the T/C by setting is: (dose: 468.0 micrograms/kg/injection, schedule: Q01DX009 (ip), vehicle: saline + alcohol) 89 % of control; (dose: 780.0 micrograms/kg/injection, schedule: Q01DX009 (ip), vehicle: saline + alcohol) 89 % of control.

Regarding `COc1cc(-c2nnc(SCCN(C)C)o2)cc(OC)c1OC`, the T/C (dose: 50.0 mg/kg/injection, schedule: Q04DX002 (ip), vehicle: water) was 100 % of control; the T/C (dose: 100.0 mg/kg/injection, schedule: Q04DX002 (ip), vehicle: water) is 101 % of control; the T/C (dose: 200.0 mg/kg/injection, schedule: Q04DX002 (ip), vehicle: water) is 100 % of control.

For the compound `COc1ccc2c(=O)c(-c3cc4c(cc3OC)OCO4)coc2c1`, the T/C runs as follows: (dose: 8.0 mg/kg/injection, schedule: Q01DX005 (ip), vehicle: Klucel (hydroxypropylcellulose) (HPC)) 88 % of control; (dose: 16.0 mg/kg/injection, schedule: Q01DX005 (ip), vehicle: Klucel (hydroxypropylcellulose) (HPC)) 86 % of control.

Consider `C=C1CC1CC(N)C(=O)O` (stereo not drawn), for which the T/C (dose: 1.25 mg/kg/injection, schedule: Q01DX009 (ip), vehicle: saline) is 108 % of control; the T/C (dose: 2.5 mg/kg/injection, schedule: Q01DX009 (ip), vehicle: saline) is 96 % of control; the T/C (dose: 5.0 mg/kg/injection, schedule: Q01DX009 (ip), vehicle: saline) is 100 % of control.

Consider `CNC(=O)N(N=O)c1[nH]c(=O)ncc1Cl`, for which the T/C is, setting by setting: under setting [7], 116 % of control; under setting [8], 116 % of control.
